Among the data in patent US20230117324A1, “OXAZINE MONOACYLGLYCEROL LIPASE (MAGL) INHIBITORS” (Hoffmann-La Roche Inc., priority 2018, published 2023) are IC50 values, retold here.

pIC50: −log10 of the molar value.

This assay addresses T1, MAGL (Homo sapiens, UniProt Q99685).
T1 sequence (Q99685 1-303): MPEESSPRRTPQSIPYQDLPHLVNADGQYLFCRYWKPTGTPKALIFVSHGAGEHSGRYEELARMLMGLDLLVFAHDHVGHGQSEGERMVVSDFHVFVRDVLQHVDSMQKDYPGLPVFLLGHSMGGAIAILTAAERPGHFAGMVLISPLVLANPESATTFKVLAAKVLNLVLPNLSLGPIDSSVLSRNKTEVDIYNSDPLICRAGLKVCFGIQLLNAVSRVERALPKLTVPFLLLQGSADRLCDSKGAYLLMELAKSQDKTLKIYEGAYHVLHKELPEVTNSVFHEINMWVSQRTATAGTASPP
The assay is described as follows: MAGL inhibition, 2-AG assay (hydrolysis of 2-arachidonoylglycerol, arachidonic acid by mass spectrometry). The class given is biochemical. To be noted: 2-AG assay (footnote [b]). The essentials:
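Hydrolysis of 8 μM 2-arachidonoylglycerol by […] was run for 30 min at RT after a 15 min compound preincubation, in Tris/EDTA/Tween buffer. Test compounds spanned […]. The product was measured by online SPE-MS/MS (transitions 303.1→259.1 and 311.1→267.0), and activity was derived from the arachidonic acid/d8-arachidonic acid signal ratio.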

As to `CC1(F)CN(c2ccc(C3CN(C(=O)N4CC[C@@H]5OCC(=O)N[C@@H]5C4)C3)cc2)C1` [Example 200, (4aR,8aS)-6-[3-[4-(3-Fluoro-3-methyl-azetidin-1-yl)phenyl]azetidine-1-carbonyl]-4,4a,5,7,8,8a-hexahydropyrido[4,3-b][1,4]oxazin-3-one], the pIC50 is 7.85.

In turn, `O=C1CO[C@H]2CCN(C(=O)N3CC(c4ccc(N5CC(F)C5)cc4)C3)C[C@H]2N1` [Example 201, (4aR,8aS)-6-(3-(4-(3-Fluoroazetidin-1-yl)phenyl)azetidine-1-carbonyl)hexahydro-2H-pyrido[4,3-b][1,4]oxazin-3(4H)-one] had a pIC50 of 7.00. The figure for `O=C1CO[C@H]2CCN(C(=O)N3CC(c4ccc(OC(F)(F)F)c(F)c4)C3)C[C@H]2N1` [Example 202, (4aR,8aS)-6-(3-(3-Fluoro-4-(trifluoromethoxy)phenyl)azetidine-1-carbonyl)hexahydro-2H-pyrido[4,3-b][1,4]oxazin-3(4H)-one] is 7.92; for `Cc1cc(C2CN(C(=O)N3CC[C@@H]4OCC(=O)N[C@@H]4C3)C2)ccc1OC(F)(F)F` [Example 203, (4aR,8aS)-6-(3-(3-Methyl-4-(trifluoromethoxy)phenyl)azetidine-1-carbonyl)hexahydro-2H-pyrido[4,3-b][1,4]oxazin-3(4H)-one] it is 9.10.

In turn, `O=C1CO[C@H]2CCN(C(=O)N3CC(c4cc(F)c(OC(F)(F)F)c(F)c4)C3)C[C@H]2N1` [Example 204, (4aR,8aS)-6-(3-(3,5-Difluoro-4-(trifluoromethoxy)phenyl)azetidine-1-carbonyl)hexahydro-2H-pyrido[4,3-b][1,4]oxazin-3(4H)-one] had a pIC50 of 8.00. The figure for `O=C1CO[C@H]2CCN(C(=O)N3CC(c4ccc(OC(F)(F)F)cc4Cl)C3)C[C@H]2N1` [Example 205, (4aR,8aS)-6-(3-(2-Chloro-4-(trifluoromethoxy)phenyl)azetidine-1-carbonyl)hexahydro-2H-pyrido[4,3-b][1,4]oxazin-3(4H)-one] is 7.74. `O=C1CO[C@H]2CCN(C(=O)N3CC(c4ccc(C56CC(C5)C6)cc4)C3)C[C@H]2N1` [Example 206, (4aR,8aS)-6-(3-(4-(Bicyclo[1.1.1]pentan-1-yl)phenyl)azetidine-1-carbonyl)hexahydro-2H-pyrido[4,3-b][1,4]oxazin-3(4H)-one] gave a pIC50 of 8.30. The value for `O=C1CO[C@H]2CCN(C(=O)N3CC(c4ccc(N5CCCC5C(F)(F)F)cn4)C3)C[C@H]2N1` (stereo partly drawn) [Example 207, (4aR,8aS)-6-(3-(5-(2-(Trifluoromethyl)pyrrolidin-1-yl)pyridin-2-yl)azetidine-1-carbonyl)hexahydro-2H-pyrido[4,3-b][1,4]oxazin-3(4H)-one] was 8.22; that for `O=C1CO[C@H]2CCN(C(=O)N3CCC(c4c[nH]c5ccc(F)cc45)C3)C[C@H]2N1` (stereo partly drawn) [Example 208, (4aR,8aS)-6-(3-(5-Fluoro-1H-indol-3-yl)pyrrolidine-1-carbonyl)hexahydro-2H-pyrido[4,3-b][1,4]oxazin-3(4H)-one] was 7.32. The molecule `O=C1CO[C@H]2CCN(C(=O)N3CCC(c4cn(Cc5ccccc5)c5ccc(Cl)cc45)C3)C[C@H]2N1` (stereo partly drawn) [Example 209, (4aR,8aS)-6-(3-(1-Benzyl-5-chloro-1H-indol-3-yl)pyrrolidine-1-carbonyl)hexahydro-2H-pyrido[4,3-b][1,4]oxazin-3(4H)-one] gave a pIC50 of 9.10. For the molecule `O=C1CO[C@H]2CCN(C(=O)N3CC(c4ccc(C(F)(F)F)cc4F)C3)C[C@H]2N1` [Example 210, (4aR,8aS)-6-(3-(2-Fluoro-4-(trifluoromethyl)phenyl)azetidine-1-carbonyl)hexahydro-2H-pyrido[4,3-b][1,4]oxazin-3(4H)-one], the pIC50 was 6.95. The figure for `O=C1CO[C@H]2CCN(C(=O)N3CC(c4ccc(OC(F)(F)F)c(Cl)c4)C3)C[C@H]2N1` [Example 211, (4aR,8aS)-6-(3-(3-Chloro-4-(trifluoromethoxy)phenyl)azetidine-1-carbonyl)hexahydro-2H-pyrido[4,3-b][1,4]oxazin-3(4H)-one] is 7.96; for `O=C1CO[C@H]2CCN(C(=O)N3CC(c4ccc(N5CC(OCC6CC6)C5)cc4)C3)C[C@H]2N1` [Example 212, (4aR,8aS)-6-[3-[4-[3-(Cyclopropylmethoxy)azetidin-1-yl]phenyl]azetidine-1-carbonyl]-4,4a,5,7,8,8a-hexahydropyrido[4,3-b][1,4]oxazin-3-one] it is 8.52.

`N#Cc1cc(C2CN(C(=O)N3CC[C@@H]4OCC(=O)N[C@@H]4C3)C2)ccc1OC(F)(F)F` [Example 213, 5-(1-((4aR,8aS)-3-Oxooctahydro-2H-pyrido[4,3-b][1,4]oxazine-6-carbonyl)azetidin-3-yl)-2-(trifluoromethoxy)benzonitrile] showed a pIC50 of 6.94.

Molecule `O=C1CO[C@H]2CCN(C(=O)N3CC(c4ccc(C5(CO)CC5)cc4)C3)C[C@H]2N1` [Example 214, (4aR,8aS)-6-(3-(4-(1-(Hydroxymethyl)cyclopropyl)phenyl)azetidine-1-carbonyl)hexahydro-2H-pyrido[4,3-b][1,4]oxazin-3(4H)-one] had a pIC50 of 7.21.

`Cn1ncc2c(C3CN(C(=O)N4CC[C@@H]5OCC(=O)N[C@@H]5C4)C3)cccc21` [Example 215, (4aR,8aS)-6-(3-(1-Methyl-1H-indazol-4-yl)azetidine-1-carbonyl)hexahydro-2H-pyrido[4,3-b][1,4]oxazin-3(4H)-one] gave a pIC50 of 6.26. Turning to `O=C1CO[C@H]2CCN(C(=O)N3CC(c4ccc(N5CCC(F)C5)cc4)C3)C[C@H]2N1` (stereo partly drawn) [Example 216, (4aR,8aS)-6-(3-(4-(3-Fluoropyrrolidin-1-yl)phenyl)azetidine-1-carbonyl)hexahydro-2H-pyrido[4,3-b][1,4]oxazin-3(4H)-one], the pIC50 was 7.64. `CC1CCN1c1ccc(C2CN(C(=O)N3CC[C@@H]4OCC(=O)N[C@@H]4C3)C2)cc1` (stereo partly drawn) [Example 217, (4aR,8aS)-6-(3-(4-(2-Methylazetidin-1-yl)phenyl)azetidine-1-carbonyl)hexahydro-2H-pyrido[4,3-b][1,4]oxazin-3(4H)-one]: the pIC50 is 8.22. The value for `O=C1CO[C@H]2CCN(C(=O)N3CCC(C(c4ccccc4)c4cccnn4)CC3)C[C@H]2N1` (stereo partly drawn) [Example 218, (4aR,8aS)-6-[4-[Phenyl(pyridazin-3-yl)methyl]piperidine-1-carbonyl]-4,4a,5,7,8,8a-hexahydropyrido[4,3-b][1,4]oxazin-3-one] was 7.27; that for `O=C1CO[C@H]2CCN(C(=O)N3CCC(c4ccc(OC(F)(F)F)cc4)C3)C[C@H]2N1` (stereo partly drawn) [Example 219, (4aR,8aS)-6-[3-[4-(Trifluoromethoxy)phenyl]pyrrolidine-1-carbonyl]-4,4a,5,7,8,8a-hexahydropyrido[4,3-b][1,4]oxazin-3-one] was 6.56. The figure for `Cn1ncc2ccc(C3CN(C(=O)N4CC[C@@H]5OCC(=O)N[C@@H]5C4)C3)cc21` [Example 220, (4aR,8aS)-6-(3-(1-Methyl-1H-indazol-6-yl)azetidine-1-carbonyl)hexahydro-2H-pyrido[4,3-b][1,4]oxazin-3(4H)-one] is 6.38. The figure for `O=C1CO[C@H]2CCN(C(=O)N3CC(c4ccc(O)c(Cl)c4)C3)C[C@H]2N1` [Example 223, (4aR,8aS)-6-(3-(3-Chloro-4-hydroxyphenyl)azetidine-1-carbonyl)hexahydro-2H-pyrido[4,3-b][1,4]oxazin-3(4H)-one] is 6.73; for `CC1CN(c2ccc(C3CN(C(=O)N4CC[C@@H]5OCC(=O)N[C@@H]5C4)C3)cc2Cl)C1` [Example 224, (4aR,8aS)-6-(3-(3-Chloro-4-(3-methylazetidin-1-yl)phenyl)azetidine-1-carbonyl)hexahydro-2H-pyrido[4,3-b][1,4]oxazin-3(4H)-one] it is 8.22; for `O=C1CO[C@H]2CCN(C(=O)N3CC(c4ccc(C5COC5)cc4)C3)C[C@H]2N1` [Example 225, (4aR,8aS)-6-[3-[4-(Oxetan-3-yl)phenyl]azetidine-1-carbonyl]-4,4a,5,7,8,8a-hexahydropyrido[4,3-b][1,4]oxazin-3-one] it is 7.00. Molecule `O=C1CO[C@H]2CCN(C(=O)N3CC(c4ccc(N5CC(F)(F)C5)c(Cl)c4)C3)C[C@H]2N1` [Example 226, (4aR,8aS)-6-(3-(3-Chloro-4-(3,3-difluoroazetidin-1-yl)phenyl)azetidine-1-carbonyl)hexahydro-2H-pyrido[4,3-b][1,4]oxazin-3(4H)-one] gave a pIC50 of 7.72.

`CC1CN(c2cc(C3CN(C(=O)N4CC[C@@H]5OCC(=O)N[C@@H]5C4)C3)ccc2OC(F)(F)F)C1` [Example 227, (4aR,8aS)-6-(3-(3-(3-Methylazetidin-1-yl)-4-(trifluoromethoxy)phenyl)azetidine-1-carbonyl)hexahydro-2H-pyrido[4,3-b][1,4]oxazin-3(4H)-one]: the pIC50 is 7.85.

For the molecule `O=C1CO[C@H]2CCN(C(=O)N3CC(c4ccc(N5CC6CC(C6)C5)cc4)C3)C[C@H]2N1` [Example 230, (4aR,8aS)-6-[3-[4-(3-Azabicyclo[3.1.1]heptan-3-yl)phenyl]azetidine-1-carbonyl]-4,4a,5,7,8,8a-hexahydropyrido[4,3-b][1,4]oxazin-3-one], the pIC50 was 9.70.
